Source: US7465401B2, “Treatment of chloraminated water” (Water Corporation, priority 2003, dated 2008)

Columns and labels:
[1] = system: ammonia oxidising bacteria, cultured from a chloraminated system; experiment: Ammonia level over days in a dechlorinated chloraminated water sample dosed with ammonia and ammonia oxidising bacteria; assay type: cell-based
Method: After the elimination of chlorine, a chloraminated water bulk sample was dosed with excess ammonia to achieve 1.50 mg/L ammonia-N concentration. The bulk sample was dosed with ammonia oxidising bacteria, cultured from a chloraminated system.
The bulk sample was then subsampled into 9 separate portions. These portions were dosed as follows: • 1. no dosage • 2. 0.1 mg/L copper • 3. 0.2 mg/L copper • 4. 0.3 mg/L copper • 5. 0.2 mg/L zinc • 6. 0.4 mg/L zinc • 7. 0.2 mg/L copper, 0.1 mg/L zinc • 8. 0.1 mg/L copper, 0.2 mg/L zinc • 9. 0.2 mg/L copper, 0.4 mg/L zinc.
The samples were measured over subsequent days to determine the ammonia levels.

[2] = system: nitrification; experiment: Field trial: covered reservoir dosed with copper sulphate; ammonia, nitrite and nitrate measured at inlet and outlet; details: copper about 0.25 mg/L for six weeks
Method: The levels of ammonia, nitrite and nitrate were measured both at reservoir inlet and outlet.

[3] = 0.1 mg/L copper, 1.50 mg/L ammonia-N at start
[4] = 0.2 mg/L copper, 1.50 mg/L ammonia-N at start
[5] = 0.3 mg/L copper, 1.50 mg/L ammonia-N at start

[Cu] [copper]
time after which the ammonia level begins to fall [1, 3]: about seven
time to fall to the base ammonia level of about 0.1 mg/L [1, 3]: ~12 days
time the ammonia level was maintained [1, 4]: about 15 days
time to reach the base ammonia level [1, 4]: 19 days
time the ammonia level was maintained [1, 5]: 34 days
time to reach the base ammonia level [1, 5]: 40 days
microbiological activity following dosing [2]: significant reduction
nitrate and nitrite levels at reservoir outlet ([2]; detention period 3.5 days): substantial reduction
percentage of ammonia surviving from inlet to outlet ([2]; detention period 3.5 days): substantial increase

[Zn] [zinc]
effect of zinc on the efficacy of the copper dose ([1]; zinc 0.1-0.4 mg/L in conjunction with copper 0.1-0.2 mg/L): decrease the efficacy of the copper dose
